Measurements published in publication PMC8401933 (Molecules, 2021).

Assays:
LKB1 = molecular target: T1, LKB1 (Homo sapiens, UniProt Q15831); test: KINOMEscan binding; conditions: read-out: Percent Control
T1 construct: purchased Eurofins DiscoverX KINOMEscan

CIT = molecular target: T2, CIT (Homo sapiens, UniProt O14578); test: KINOMEscan binding; conditions: read-out: Percent Control
T2 construct: purchased Eurofins DiscoverX KINOMEscan

PDPK1 = molecular target: T3, PDPK1 (Homo sapiens, UniProt O15530); test: KINOMEscan binding; conditions: read-out: Percent Control
T3 construct: purchased Eurofins DiscoverX KINOMEscan

HIPK4 = molecular target: T4, HIPK4 (Homo sapiens, UniProt Q8NE63); test: KINOMEscan binding; conditions: read-out: Percent Control
T4 construct: purchased Eurofins DiscoverX KINOMEscan

MINK = molecular target: T5, MINK (Homo sapiens, UniProt Q8N4C8); test: KINOMEscan binding; conditions: read-out: Percent Control
T5 construct: purchased Eurofins DiscoverX KINOMEscan

AKT3 = molecular target: T6, AKT3 (Homo sapiens, UniProt Q9Y243); test: KINOMEscan binding; conditions: read-out: Percent Control
T6 construct: purchased Eurofins DiscoverX KINOMEscan

AURKC = molecular target: T7, AURKC (Homo sapiens, UniProt Q9UQB9); test: KINOMEscan binding; conditions: read-out: Percent Control
T7 construct: purchased Eurofins DiscoverX KINOMEscan

MARK3 = molecular target: T8, MARK3 (Homo sapiens, UniProt P27448); test: KINOMEscan binding; conditions: read-out: Percent Control
T8 construct: purchased Eurofins DiscoverX KINOMEscan

PIP5K1C = molecular target: T9, PIP5K1C (Homo sapiens, UniProt O60331); test: KINOMEscan binding; conditions: read-out: Percent Control
T9 construct: purchased Eurofins DiscoverX KINOMEscan

FGFR3(G697C) = molecular target: T10, FGFR3(G697C) (Homo sapiens, UniProt P22607, G697C); test: KINOMEscan binding; conditions: read-out: Percent Control
T10 construct: purchased Eurofins DiscoverX KINOMEscan
T10 sequence (P22607 23-806 G697C): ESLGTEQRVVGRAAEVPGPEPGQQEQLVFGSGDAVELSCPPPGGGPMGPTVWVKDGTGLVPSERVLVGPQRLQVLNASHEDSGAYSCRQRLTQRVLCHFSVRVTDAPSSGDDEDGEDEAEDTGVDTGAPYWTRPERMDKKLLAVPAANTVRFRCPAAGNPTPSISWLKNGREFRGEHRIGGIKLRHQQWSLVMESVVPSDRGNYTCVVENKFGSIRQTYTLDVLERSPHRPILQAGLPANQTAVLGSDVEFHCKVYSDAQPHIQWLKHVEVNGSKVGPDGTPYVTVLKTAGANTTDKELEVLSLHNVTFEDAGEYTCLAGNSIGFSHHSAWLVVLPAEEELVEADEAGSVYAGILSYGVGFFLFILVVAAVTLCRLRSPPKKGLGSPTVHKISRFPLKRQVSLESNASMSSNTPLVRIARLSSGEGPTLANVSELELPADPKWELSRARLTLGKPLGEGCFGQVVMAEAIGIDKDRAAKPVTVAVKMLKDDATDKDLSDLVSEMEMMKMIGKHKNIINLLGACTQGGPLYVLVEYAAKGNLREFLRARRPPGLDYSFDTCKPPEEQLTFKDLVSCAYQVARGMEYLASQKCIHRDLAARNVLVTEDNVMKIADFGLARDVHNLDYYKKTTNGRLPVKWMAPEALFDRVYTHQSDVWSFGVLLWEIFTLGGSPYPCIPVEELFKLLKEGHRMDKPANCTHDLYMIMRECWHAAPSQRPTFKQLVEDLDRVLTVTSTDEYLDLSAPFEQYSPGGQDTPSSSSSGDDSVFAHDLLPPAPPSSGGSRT

PIK3CA(C420R) = molecular target: T11, PIK3CA(C420R) (Homo sapiens, UniProt P42336, C420R); test: KINOMEscan binding; conditions: read-out: Percent Control
T11 construct: purchased Eurofins DiscoverX KINOMEscan

LATS1 = molecular target: T12, LATS1 (Homo sapiens, UniProt O95835); test: KINOMEscan binding; conditions: read-out: Percent Control
T12 construct: purchased Eurofins DiscoverX KINOMEscan

ERBB3 = molecular target: T13, ERBB3 (Homo sapiens, UniProt P21860); test: KINOMEscan binding; conditions: read-out: Percent Control
T13 construct: purchased Eurofins DiscoverX KINOMEscan

STK39 = molecular target: T14, STK39 (Homo sapiens, UniProt Q9UEW8); test: KINOMEscan binding; conditions: read-out: Percent Control
T14 construct: purchased Eurofins DiscoverX KINOMEscan

MARK1 = molecular target: T15, MARK1 (Homo sapiens, UniProt Q9P0L2); test: KINOMEscan binding; conditions: read-out: Percent Control
T15 construct: purchased Eurofins DiscoverX KINOMEscan
T15 sequence (Q9P0L2 whole entry): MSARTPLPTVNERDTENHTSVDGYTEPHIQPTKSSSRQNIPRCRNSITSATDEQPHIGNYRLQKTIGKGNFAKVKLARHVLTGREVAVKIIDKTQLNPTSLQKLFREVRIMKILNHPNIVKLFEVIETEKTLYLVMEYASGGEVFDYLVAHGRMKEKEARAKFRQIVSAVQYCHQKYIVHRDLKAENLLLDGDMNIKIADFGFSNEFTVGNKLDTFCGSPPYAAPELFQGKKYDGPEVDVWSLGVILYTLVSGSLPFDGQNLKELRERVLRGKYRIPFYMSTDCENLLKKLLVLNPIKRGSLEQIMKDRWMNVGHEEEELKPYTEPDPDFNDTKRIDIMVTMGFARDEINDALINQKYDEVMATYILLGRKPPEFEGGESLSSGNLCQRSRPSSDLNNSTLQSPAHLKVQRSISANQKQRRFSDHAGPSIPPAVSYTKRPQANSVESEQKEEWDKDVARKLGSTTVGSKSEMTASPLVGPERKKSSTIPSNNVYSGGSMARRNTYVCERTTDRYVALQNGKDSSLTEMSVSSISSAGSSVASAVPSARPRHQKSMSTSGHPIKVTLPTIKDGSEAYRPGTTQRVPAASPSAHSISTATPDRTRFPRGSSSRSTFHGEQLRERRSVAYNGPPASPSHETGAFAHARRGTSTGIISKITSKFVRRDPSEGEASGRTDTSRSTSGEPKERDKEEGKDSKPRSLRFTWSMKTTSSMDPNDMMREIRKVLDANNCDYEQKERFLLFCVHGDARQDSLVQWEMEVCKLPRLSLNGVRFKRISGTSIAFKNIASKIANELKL

CAMK1G = molecular target: T16, CAMK1G (Homo sapiens, UniProt Q96NX5); test: KINOMEscan binding; conditions: read-out: Percent Control
T16 construct: purchased Eurofins DiscoverX KINOMEscan

MLCK = molecular target: T17, MLCK (Homo sapiens, UniProt Q32MK0); test: KINOMEscan binding; conditions: read-out: Percent Control
T17 construct: purchased Eurofins DiscoverX KINOMEscan

FYN = molecular target: T18, FYN (Homo sapiens, UniProt P06241); test: KINOMEscan binding; conditions: read-out: Percent Control
T18 construct: purchased Eurofins DiscoverX KINOMEscan

GCN2(Kin.Dom.2,S808G) = molecular target: T19, GCN2(Kin.Dom.2,S808G) (Homo sapiens, UniProt Q9P2K8, S808G); test: KINOMEscan binding; conditions: read-out: Percent Control
T19 construct: GCN2(Kin.Dom.2,S808G); purchased Eurofins DiscoverX KINOMEscan

MERTK = molecular target: T20, MERTK (Homo sapiens, UniProt Q12866); test: KINOMEscan binding; conditions: read-out: Percent Control
T20 construct: purchased Eurofins DiscoverX KINOMEscan

CDK5 = molecular target: T21, CDK5 (Homo sapiens, UniProt Q00535); test: KINOMEscan binding; conditions: read-out: Percent Control
T21 construct: purchased Eurofins DiscoverX KINOMEscan

PIM1 = molecular target: T22, PIM1 (Homo sapiens, UniProt P11309); test: KINOMEscan binding; conditions: read-out: Percent Control
T22 construct: purchased Eurofins DiscoverX KINOMEscan

MEK3 = molecular target: T23, MEK3 (Homo sapiens, UniProt P46734); test: KINOMEscan binding; conditions: read-out: Percent Control
T23 construct: purchased Eurofins DiscoverX KINOMEscan
T23 sequence (P46734 whole entry): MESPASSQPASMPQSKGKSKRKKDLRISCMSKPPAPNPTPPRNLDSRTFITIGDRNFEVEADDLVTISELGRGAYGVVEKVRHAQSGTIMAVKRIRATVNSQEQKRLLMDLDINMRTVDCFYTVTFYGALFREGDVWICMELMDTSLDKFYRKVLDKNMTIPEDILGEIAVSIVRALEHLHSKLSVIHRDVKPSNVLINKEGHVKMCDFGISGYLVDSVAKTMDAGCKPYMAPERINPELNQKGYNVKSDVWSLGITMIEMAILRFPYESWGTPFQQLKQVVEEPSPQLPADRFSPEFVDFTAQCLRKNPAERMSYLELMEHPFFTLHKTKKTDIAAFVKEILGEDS

[1] = molecular target: T24, ABL1(H396P)-nonphosphorylated (Homo sapiens, UniProt P00519, H396P); test: KINOMEscan binding; conditions: read-out: Percent Control
T24 construct: purchased Eurofins DiscoverX KINOMEscan

ADCK4 = molecular target: T25, ADCK4 (Homo sapiens, UniProt Q96D53); test: KINOMEscan binding; conditions: read-out: Percent Control
T25 construct: purchased Eurofins DiscoverX KINOMEscan

MEK5 = molecular target: T26, MEK5 (Homo sapiens, UniProt Q13163); test: KINOMEscan binding; conditions: read-out: Percent Control
T26 construct: purchased Eurofins DiscoverX KINOMEscan

PIK3CA(E545A) = molecular target: T27, PIK3CA(E545A) (Homo sapiens, UniProt P42336, E545A); test: KINOMEscan binding; conditions: read-out: Percent Control
T27 construct: purchased Eurofins DiscoverX KINOMEscan

AKT2 = molecular target: T28, AKT2 (Homo sapiens, UniProt P31751); test: KINOMEscan binding; conditions: read-out: Percent Control
T28 construct: purchased Eurofins DiscoverX KINOMEscan

WEE2 = molecular target: T29, WEE2 (Homo sapiens, UniProt P0C1S8); test: KINOMEscan binding; conditions: read-out: Percent Control
T29 construct: purchased Eurofins DiscoverX KINOMEscan

MYO3A = molecular target: T30, MYO3A (Homo sapiens, UniProt Q8NEV4); test: KINOMEscan binding; conditions: read-out: Percent Control
T30 construct: purchased Eurofins DiscoverX KINOMEscan
T30 sequence (Q8NEV4 whole entry): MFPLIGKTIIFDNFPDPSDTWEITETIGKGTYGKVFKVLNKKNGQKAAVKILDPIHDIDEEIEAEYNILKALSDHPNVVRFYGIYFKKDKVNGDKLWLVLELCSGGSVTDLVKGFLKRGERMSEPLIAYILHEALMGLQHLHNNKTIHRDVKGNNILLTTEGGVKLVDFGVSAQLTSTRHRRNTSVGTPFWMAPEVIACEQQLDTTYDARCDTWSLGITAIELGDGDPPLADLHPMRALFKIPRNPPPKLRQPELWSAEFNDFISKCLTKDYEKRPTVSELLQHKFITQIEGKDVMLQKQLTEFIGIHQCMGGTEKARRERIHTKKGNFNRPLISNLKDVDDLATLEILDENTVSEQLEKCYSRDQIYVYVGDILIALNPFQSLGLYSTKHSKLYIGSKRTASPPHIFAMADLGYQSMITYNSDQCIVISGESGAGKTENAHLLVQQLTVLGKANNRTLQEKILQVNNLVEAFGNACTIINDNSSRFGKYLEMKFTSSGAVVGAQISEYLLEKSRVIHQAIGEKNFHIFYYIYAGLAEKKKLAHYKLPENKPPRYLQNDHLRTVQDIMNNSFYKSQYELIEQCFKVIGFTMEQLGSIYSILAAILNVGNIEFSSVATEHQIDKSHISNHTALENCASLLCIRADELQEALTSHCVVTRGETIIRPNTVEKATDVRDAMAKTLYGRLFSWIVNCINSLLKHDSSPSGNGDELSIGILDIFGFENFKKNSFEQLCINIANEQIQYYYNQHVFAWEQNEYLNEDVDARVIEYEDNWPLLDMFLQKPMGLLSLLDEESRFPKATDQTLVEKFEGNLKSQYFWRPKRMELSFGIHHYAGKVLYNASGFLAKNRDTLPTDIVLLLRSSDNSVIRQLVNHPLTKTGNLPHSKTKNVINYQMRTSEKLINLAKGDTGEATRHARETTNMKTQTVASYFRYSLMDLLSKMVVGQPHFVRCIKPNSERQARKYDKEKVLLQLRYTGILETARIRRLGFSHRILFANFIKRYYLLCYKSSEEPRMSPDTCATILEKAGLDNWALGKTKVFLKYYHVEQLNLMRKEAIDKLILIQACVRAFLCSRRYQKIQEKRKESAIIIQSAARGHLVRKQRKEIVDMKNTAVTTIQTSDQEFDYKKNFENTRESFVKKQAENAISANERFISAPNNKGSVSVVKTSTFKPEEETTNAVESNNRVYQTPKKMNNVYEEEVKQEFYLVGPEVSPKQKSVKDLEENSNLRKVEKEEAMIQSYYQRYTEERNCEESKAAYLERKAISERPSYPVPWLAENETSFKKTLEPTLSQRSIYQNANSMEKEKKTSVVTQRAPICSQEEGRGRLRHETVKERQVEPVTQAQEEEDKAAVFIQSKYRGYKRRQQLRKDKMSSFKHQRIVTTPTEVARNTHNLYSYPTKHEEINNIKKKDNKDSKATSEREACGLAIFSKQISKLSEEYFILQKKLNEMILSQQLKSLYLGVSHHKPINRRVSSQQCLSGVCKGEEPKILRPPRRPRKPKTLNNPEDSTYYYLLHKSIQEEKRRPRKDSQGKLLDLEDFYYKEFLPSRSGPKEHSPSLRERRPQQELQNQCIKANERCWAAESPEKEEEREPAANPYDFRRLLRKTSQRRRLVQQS

ERK4 = molecular target: T31, ERK4 (Homo sapiens, UniProt P31152); test: KINOMEscan binding; conditions: read-out: Percent Control
T31 construct: purchased Eurofins DiscoverX KINOMEscan

CLK3 = molecular target: T32, CLK3 (Homo sapiens, UniProt P49761); test: KINOMEscan binding; conditions: read-out: Percent Control
T32 construct: purchased Eurofins DiscoverX KINOMEscan

ROCK2 = system: ROCK2; parameters: method as in PMID 18832915; conditions: cited from earlier work
TGFBR2 = molecular target: T33, TGFBR2 (Homo sapiens, UniProt P37173); test: KINOMEscan binding; conditions: read-out: Percent Control
T33 construct: purchased Eurofins DiscoverX KINOMEscan

VEGFR2 = molecular target: T34, VEGFR2 (Homo sapiens, UniProt P35968); test: KINOMEscan binding; conditions: read-out: Percent Control
T34 construct: purchased Eurofins DiscoverX KINOMEscan

[2] = molecular target: T35, ABL1(F317I)-nonphosphorylated (Homo sapiens, UniProt P00519, F317I); test: KINOMEscan binding; conditions: read-out: Percent Control
T35 construct: purchased Eurofins DiscoverX KINOMEscan

OSR1 = molecular target: T36, OSR1 (Homo sapiens, UniProt O95747); test: KINOMEscan binding; conditions: read-out: Percent Control
T36 construct: purchased Eurofins DiscoverX KINOMEscan

TBK1 = molecular target: T37, TBK1 (Homo sapiens, UniProt Q9UHD2); test: KINOMEscan binding; conditions: read-out: Percent Control
T37 construct: purchased Eurofins DiscoverX KINOMEscan

STK33 = molecular target: T38, STK33 (Homo sapiens, UniProt Q9BYT3); test: KINOMEscan binding; conditions: read-out: Percent Control
T38 construct: purchased Eurofins DiscoverX KINOMEscan
T38 sequence (Q9BYT3 whole entry): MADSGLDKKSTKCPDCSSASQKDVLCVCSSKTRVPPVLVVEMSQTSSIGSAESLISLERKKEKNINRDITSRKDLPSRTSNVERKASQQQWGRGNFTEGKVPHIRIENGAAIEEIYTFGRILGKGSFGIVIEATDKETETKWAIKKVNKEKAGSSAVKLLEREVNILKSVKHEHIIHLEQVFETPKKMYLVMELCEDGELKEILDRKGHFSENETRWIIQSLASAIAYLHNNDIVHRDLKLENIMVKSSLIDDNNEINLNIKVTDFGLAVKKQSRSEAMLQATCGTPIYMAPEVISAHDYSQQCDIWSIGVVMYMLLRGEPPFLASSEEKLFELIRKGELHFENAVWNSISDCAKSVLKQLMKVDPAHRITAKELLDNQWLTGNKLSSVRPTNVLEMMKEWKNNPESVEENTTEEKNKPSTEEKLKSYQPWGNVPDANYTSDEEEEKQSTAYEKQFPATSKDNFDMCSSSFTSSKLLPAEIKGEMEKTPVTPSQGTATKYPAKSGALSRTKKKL

PRKX = molecular target: T39, PRKX (Homo sapiens, UniProt P51817); test: KINOMEscan binding; conditions: read-out: Percent Control
T39 construct: purchased Eurofins DiscoverX KINOMEscan

SBK1 = molecular target: T40, SBK1 (Homo sapiens, UniProt Q52WX2); test: KINOMEscan binding; conditions: read-out: Percent Control
T40 construct: purchased Eurofins DiscoverX KINOMEscan
T40 sequence (Q52WX2 whole entry): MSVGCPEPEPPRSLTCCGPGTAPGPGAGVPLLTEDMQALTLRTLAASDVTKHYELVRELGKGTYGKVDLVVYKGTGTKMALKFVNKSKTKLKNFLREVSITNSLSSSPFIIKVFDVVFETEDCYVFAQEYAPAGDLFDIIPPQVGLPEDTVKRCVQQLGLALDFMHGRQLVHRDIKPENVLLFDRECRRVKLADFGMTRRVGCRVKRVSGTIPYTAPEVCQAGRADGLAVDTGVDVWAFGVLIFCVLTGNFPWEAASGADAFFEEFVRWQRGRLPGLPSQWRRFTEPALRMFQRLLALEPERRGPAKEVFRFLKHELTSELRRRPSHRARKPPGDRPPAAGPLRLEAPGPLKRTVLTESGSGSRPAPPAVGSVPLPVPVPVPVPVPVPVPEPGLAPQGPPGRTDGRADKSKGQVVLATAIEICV

SLK = molecular target: T41, SLK (Homo sapiens, UniProt Q9H2G2); test: KINOMEscan binding; conditions: read-out: Percent Control
T41 construct: purchased Eurofins DiscoverX KINOMEscan

YES = molecular target: T42, YES (Homo sapiens, UniProt P07947); test: KINOMEscan binding; conditions: read-out: Percent Control
T42 construct: purchased Eurofins DiscoverX KINOMEscan
T42 sequence (P07947 whole entry): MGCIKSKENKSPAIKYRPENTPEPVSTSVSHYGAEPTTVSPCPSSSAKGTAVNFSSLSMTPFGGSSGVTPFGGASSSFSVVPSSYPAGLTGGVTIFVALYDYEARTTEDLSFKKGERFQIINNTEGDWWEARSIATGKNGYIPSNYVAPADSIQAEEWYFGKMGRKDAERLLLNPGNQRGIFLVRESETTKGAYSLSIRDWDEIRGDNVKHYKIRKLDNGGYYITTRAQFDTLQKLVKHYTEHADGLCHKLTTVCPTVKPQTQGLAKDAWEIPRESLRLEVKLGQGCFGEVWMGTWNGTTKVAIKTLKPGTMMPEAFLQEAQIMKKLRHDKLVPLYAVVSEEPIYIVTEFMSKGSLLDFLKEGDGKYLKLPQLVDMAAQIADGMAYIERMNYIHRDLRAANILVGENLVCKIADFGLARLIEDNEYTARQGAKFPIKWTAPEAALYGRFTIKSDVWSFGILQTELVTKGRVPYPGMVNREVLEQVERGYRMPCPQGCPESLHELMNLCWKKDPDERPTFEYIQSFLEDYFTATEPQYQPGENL

PYK2 = molecular target: T43, PYK2 (Homo sapiens, UniProt Q14289); test: KINOMEscan binding; conditions: read-out: Percent Control
T43 construct: purchased Eurofins DiscoverX KINOMEscan

CC(C)NC(=O)COc1cccc(-c2nc(Nc3ccc4[nH]ncc4c3)c3ccccc3n2)c1 [KD025, 2-(3-(4-((1H-indazol-5-yl)amino)quinazolin-2-yl)phenoxy)-N-isopropylacetamide]
remaining binding at 10 µM (LKB1): 63%
remaining binding at 10 µM (CIT): 75%
remaining binding at 10 µM (PDPK1): 70%
remaining binding at 10 µM (HIPK4): 69%
remaining binding at 10 µM (MINK): 71%
remaining binding at 10 µM (AKT3): 100%
remaining binding at 10 µM (AURKC): 18%
remaining binding at 10 µM (MARK3): 92%
remaining binding at 10 µM (PIP5K1C): 47%
remaining binding at 10 µM (FGFR3(G697C)): 77%
remaining binding at 10 µM (PIK3CA(C420R)): 86%
remaining binding at 10 µM (LATS1): 48%
remaining binding at 10 µM (ERBB3): 79%
remaining binding at 10 µM (STK39): 100%
remaining binding at 10 µM (MARK1): 100%
remaining binding at 10 µM (CAMK1G): 88%
remaining binding at 10 µM (MLCK): 100%
remaining binding at 10 µM (FYN): 61%
remaining binding at 10 µM (GCN2(Kin.Dom.2,S808G)): 100%
remaining binding at 10 µM (MERTK): 58%
remaining binding at 10 µM (CDK5): 83%
remaining binding at 10 µM (PIM1): 100%
remaining binding at 10 µM (MEK3): 77%
remaining binding at 10 µM [1]: 90%
remaining binding at 10 µM (ADCK4): 100%
remaining binding at 10 µM (MEK5): 63%
remaining binding at 10 µM (PIK3CA(E545A)): 65%
remaining binding at 10 µM (AKT2): 90%
remaining binding at 10 µM (WEE2): 82%
remaining binding at 10 µM (MYO3A): 94%
remaining binding at 10 µM (ERK4): 100%
remaining binding at 10 µM (CLK3): 68%
remaining binding at 10 µM (TGFBR2): 100%
remaining binding at 10 µM (VEGFR2): 76%
remaining binding at 10 µM [2]: 98%
remaining binding at 10 µM (OSR1): 100%
remaining binding at 10 µM (TBK1): 66%
remaining binding at 10 µM (STK33): 67%
remaining binding at 10 µM (PRKX): 81%
remaining binding at 10 µM (SBK1): 100%
remaining binding at 10 µM (SLK): 59%
remaining binding at 10 µM (YES): 71%
remaining binding at 10 µM (PYK2): 95%
